Source: patent US20210270813A1, “KIT, METHOD FOR SCREENING AN ACTIVE COMPOUND IN VITRO AND USES OF A KIT” (L'OREAL, priority 2018, published 2021)

Tested on: neurites emerging from the neurospheres
Experiment: Maximum extension of neurites emerging from neurospheres in modified co-culture microdevice
Format: cell-based, human
Conditions: NGF added or not to the matrigel in the middle punched hole; 3N medium or 75% CM plus HEKn; FIG. 14C
Method: Keratinocytes moved faster than the dendrites and since removing the microdevice sometimes meant that neurospheres were pulled from the substrate, a hole between the wells of the same pair was punched and the keratinocytes were placed within this hole (FIG. 13A, red arrow). The region where there was a predominance of migrating neurites was observed and the highest migration radius was measured (FIG. 13B, blue arrow).
To further test this modified co-culture microdevice, the culture media (3N versus 75% CM from HEKn) and the presence (or not) of matrigel in the middle hole were compared by measuring the maximum extension of the neurites emerging from the neurospheres (FIG. 14A). There were no statistically significant differences. Then, the extension of neurites in the presence or absence of keratinocytes in the hole were compared. Again, no differences were observed (FIG. 14B). Finally, another variable was tested: adding NGF or not to the matrigel in the middle punched hole.

nerve growth factor [NGF]
maximum extension of the neurites (neurite migration): trend of NGF to increase migration
